We go through 7 compounds from ChEMBL document CHEMBL1201862, “PubChem BioAssay data set” (2004).

For assay [1], the target named is T1, Tyrosine-protein phosphatase non-receptor type 22 (Homo sapiens, UniProt Q9Y2R2).
T1 sequence (Q9Y2R2 whole entry): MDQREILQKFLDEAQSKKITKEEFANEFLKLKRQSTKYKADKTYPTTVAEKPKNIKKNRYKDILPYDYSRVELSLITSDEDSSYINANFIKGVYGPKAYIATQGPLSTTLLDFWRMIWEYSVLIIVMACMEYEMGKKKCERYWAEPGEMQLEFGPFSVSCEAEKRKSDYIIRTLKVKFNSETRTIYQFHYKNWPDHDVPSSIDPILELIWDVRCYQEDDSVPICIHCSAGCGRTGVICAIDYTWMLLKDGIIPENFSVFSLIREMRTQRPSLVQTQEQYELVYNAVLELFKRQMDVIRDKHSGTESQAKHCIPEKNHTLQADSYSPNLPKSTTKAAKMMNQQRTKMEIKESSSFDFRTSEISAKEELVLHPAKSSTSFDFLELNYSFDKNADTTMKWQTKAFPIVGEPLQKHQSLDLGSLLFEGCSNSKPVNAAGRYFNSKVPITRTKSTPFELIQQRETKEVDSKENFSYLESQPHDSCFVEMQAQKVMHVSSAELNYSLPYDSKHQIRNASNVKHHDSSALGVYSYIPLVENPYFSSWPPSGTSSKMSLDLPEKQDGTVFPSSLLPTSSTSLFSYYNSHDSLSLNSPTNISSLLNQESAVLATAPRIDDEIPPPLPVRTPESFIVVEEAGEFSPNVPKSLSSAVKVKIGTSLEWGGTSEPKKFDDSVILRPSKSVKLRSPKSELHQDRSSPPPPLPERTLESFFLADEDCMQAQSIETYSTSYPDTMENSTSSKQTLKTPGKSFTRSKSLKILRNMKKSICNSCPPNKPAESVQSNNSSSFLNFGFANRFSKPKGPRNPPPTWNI
The assay can be described thus: PTPN22 lymphoid phosphatase activity blockers – biochemical, fluorescence intensity, uHTS (AID 1779).

Assay [2] concerns the target T1, Tyrosine-protein phosphatase non-receptor type 22. Description: SAR LYP1 Fluorescent Assay using pCAP substrate for In Vitro dose response studies - Set 2. [Related pubchem assays (depositor defined):AID1779, AID1784, AID2135, AID449727]. The class given is functional.
Assay [3] deals with T2, Tyrosine-protein phosphatase non-receptor type 7 (Homo sapiens, UniProt P35236).
T2 sequence (P35236 whole entry): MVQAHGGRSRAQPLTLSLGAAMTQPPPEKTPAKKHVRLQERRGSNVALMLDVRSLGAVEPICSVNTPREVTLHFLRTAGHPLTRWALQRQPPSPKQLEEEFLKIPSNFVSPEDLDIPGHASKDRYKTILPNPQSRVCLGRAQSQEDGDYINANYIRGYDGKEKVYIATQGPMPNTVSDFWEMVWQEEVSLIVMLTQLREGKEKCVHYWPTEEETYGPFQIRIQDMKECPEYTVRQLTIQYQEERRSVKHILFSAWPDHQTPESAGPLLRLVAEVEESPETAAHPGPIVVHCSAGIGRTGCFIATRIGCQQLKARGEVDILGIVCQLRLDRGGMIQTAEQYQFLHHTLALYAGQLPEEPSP
The assay can be described thus: inhibition of hematopoietic tyrosine phosphatase HePTP – biochemical, set 2, SAR follow-up (AID 449736). The class given is functional.

The target in assay [4] is T1, Tyrosine-protein phosphatase non-receptor type 22. The assay can be described thus: PubChem AID 2140.
The target of the next assay is T3, Cysteine protease ATG4B (Homo sapiens, UniProt Q9Y4P1).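 Further: Fluorescence-based dose-response confirmation assay measuring inhibition of ATG4B activity.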
T3 sequence (Q9Y4P1 whole entry): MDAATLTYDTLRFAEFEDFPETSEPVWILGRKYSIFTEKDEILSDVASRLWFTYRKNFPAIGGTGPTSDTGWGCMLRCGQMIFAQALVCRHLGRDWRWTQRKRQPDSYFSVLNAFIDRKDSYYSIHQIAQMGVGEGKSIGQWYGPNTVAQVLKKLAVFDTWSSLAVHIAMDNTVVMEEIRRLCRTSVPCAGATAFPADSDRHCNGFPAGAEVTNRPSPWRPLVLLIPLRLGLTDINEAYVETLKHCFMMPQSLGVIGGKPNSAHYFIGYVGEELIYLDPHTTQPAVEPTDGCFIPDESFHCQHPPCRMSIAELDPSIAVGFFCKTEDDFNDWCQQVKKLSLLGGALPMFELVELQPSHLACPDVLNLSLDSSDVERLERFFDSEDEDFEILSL
The class given is functional.

A short description of assay [5]: NIH-3T3 fibroblast cytotoxicity, dose response, cytotoxicity control, cell-based, fluorescence, Alamar Blue, secondary assay (AID 2327).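 Further: NIH-3T3 mouse fibroblasts cultured with fluconazole at 8 µg/mL.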 The format is functional.
Assay [6] can be described thus: fluconazole-exposed Candida albicans growth modulators – fluorescence, retest, confirmation (AID 2467). The format is functional, cell-based.
The target in a further assay is T4, Caspase-3 (Homo sapiens, UniProt P42574).
T4 sequence (P42574 whole entry): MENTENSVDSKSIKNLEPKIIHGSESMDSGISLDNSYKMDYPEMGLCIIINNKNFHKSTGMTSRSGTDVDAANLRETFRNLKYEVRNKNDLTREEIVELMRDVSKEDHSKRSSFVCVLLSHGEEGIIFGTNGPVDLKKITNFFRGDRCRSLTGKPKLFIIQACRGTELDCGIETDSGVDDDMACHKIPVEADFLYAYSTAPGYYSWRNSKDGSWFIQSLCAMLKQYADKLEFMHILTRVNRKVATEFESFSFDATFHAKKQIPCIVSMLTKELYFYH
The assay can be described thus: Dose-response confirmation of uHTS inhibitor hits of Sentrin-Specific Protease 8 in a Caspase-3 Fluorescence assay. The format is functional.

The nature of assay [7]: alpha-synuclein stem-loop luciferase translation blockers – H4 neuroglioma cells, luminescence, confirmation (AID 1988). The format is functional, cell-based.
A short description of assay [8]: viability of PTEN-deleted HCT116 cells – cell-based, HCT116 PTEN knockout, dose response (AID 1047).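 Further: HCT116 colon tumor cells with PTEN knocked out; cells exposed to compound for 60 hours before readout; potency for loss of cell viability measured by luminescence.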 The format is functional.
Assay [9] can be described thus: viability of HCT116 lacking mutant beta-catenin – cell-based, human colon tumor, dose response (AID 1045).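 Further: HCT116 colon tumor cells with beta catenin knocked out; cells exposed to compound for 60 hours.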 The class given is functional.
The target of another assay is 14-3-3 protein gamma (Homo sapiens, UniProt P61981). The assay can be described thus: modulators of 14-3-3 gamma client binding – dose response (AID 711). The class given is functional.
Assay [10] has as its target T5, Zinc finger protein mex-5 (Caenorhabditis elegans, UniProt Q9XUB2).
T5 sequence (Q9XUB2 whole entry): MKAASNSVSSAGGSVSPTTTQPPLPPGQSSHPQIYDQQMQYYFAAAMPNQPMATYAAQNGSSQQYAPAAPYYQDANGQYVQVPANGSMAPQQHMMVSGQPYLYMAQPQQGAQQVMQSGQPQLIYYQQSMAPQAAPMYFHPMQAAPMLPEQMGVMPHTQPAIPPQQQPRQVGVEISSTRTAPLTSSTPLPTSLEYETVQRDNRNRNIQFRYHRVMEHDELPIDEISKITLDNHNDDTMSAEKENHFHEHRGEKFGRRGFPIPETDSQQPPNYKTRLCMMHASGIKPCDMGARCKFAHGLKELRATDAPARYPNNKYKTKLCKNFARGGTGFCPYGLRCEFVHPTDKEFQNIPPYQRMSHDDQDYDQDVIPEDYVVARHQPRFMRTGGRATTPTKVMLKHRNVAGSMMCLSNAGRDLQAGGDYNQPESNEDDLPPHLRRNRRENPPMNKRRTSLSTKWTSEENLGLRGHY
The assay can be described thus: potency of MEX-5 RNA-binding blockers – biochemical, C. elegans, fluorescence polarization, dose response (AID 1960). In general terms: Polarisation of emitted light reports the rotation of a fluorescent probe.

For assay [11], the target named is Probable nicotinate-nucleotide adenylyltransferase (Staphylococcus aureus (strain N315), UniProt P65502). The format is functional, Staphylococcus aureus subsp. aureus N315.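 Further: confirmatory retest of primary uHTS inhibitor hits against NadD over a range of doses.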

Active and inactive are the calls of the source. Where only a bound is given, the exact number is not on record here.

Sequence of Probable nicotinate-nucleotide adenylyltransferase (P65502 whole entry): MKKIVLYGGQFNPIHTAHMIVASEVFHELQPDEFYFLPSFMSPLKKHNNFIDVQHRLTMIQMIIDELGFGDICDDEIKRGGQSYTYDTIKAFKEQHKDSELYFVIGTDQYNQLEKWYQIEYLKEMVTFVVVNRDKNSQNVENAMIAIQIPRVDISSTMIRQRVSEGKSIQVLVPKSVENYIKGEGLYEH
Sequence of 14-3-3 protein gamma (P61981 whole entry): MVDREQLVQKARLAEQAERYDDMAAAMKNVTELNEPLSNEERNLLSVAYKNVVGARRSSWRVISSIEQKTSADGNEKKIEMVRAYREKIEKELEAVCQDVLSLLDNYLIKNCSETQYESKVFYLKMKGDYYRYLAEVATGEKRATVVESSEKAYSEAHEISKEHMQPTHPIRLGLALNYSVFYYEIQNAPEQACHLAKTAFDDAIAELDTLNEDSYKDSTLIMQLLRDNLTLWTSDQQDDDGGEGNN

What is called IC50 is the point on the concentration scale where inhibition reaches its midpoint. With `O=C(O)COc1ccc(/C=N/NC(=O)c2ccc(-c3csc(Nc4ccc(Cl)cc4)n3)cc2)cc1`, the IC50 in assay [1] is > 99 µM (inactive); in assay [2] it was 0.249 µM (active); in assay [3] it was 0.193 µM (active); in assay [4], 6.07 µM (active).
For the compound `CC(/C=C1\SC(=S)N(NS(=O)(=O)c2ccccc2)C1=O)=C\c1ccccc1`, the IC50 on Cysteine protease ATG4B is 12 µM (active).
Broadly, the EC50 is the midpoint of the concentration-response curve. Regarding `CCN1/C(=C/c2ccc3cc(C)ccc3[n+]2CC)Sc2cc(C)c(C)cc21`, the EC50 in [5] was 9.66 µM (inconclusive); in [6] it was < 0.03 µM (active).
Turning to `COc1cc(NCCCNC(C)C)c2nccc(C)c2c1`, the IC50 on Caspase-3 was 13.8 µM (active).
Consider `Cc1oc2c(c1C(=O)c1ccccc1)C(=O)C(=O)c1ccccc1-2`, for which the EC50 was 8.93 µM (active) in assay [7], 2.64 µM (active) in assay [8] and 2.26 µM (active) in assay [9].
With `O=C1CCCC2=C1C1(O)C(=O)c3ccccc3C1(O)O2` (centres undefined), the IC50 at 14-3-3 protein gamma is > 50 µM (not active).
`Nc1ccc2nc3c(O)nc(S)nc3nc2c1`: the EC50 in [10] is 1.67 µM (inconclusive). The IC50 in assay [11] was 7.46 µM (active).
